Source: patent publication US20140350050A1, “PYRIDINE COMPOUNDS AS INHIBITORS OF KINASE” (TELIGENE LTD., priority 2011, published 2014)
Like-named read-outs stand apart in the source and are kept apart here.

How the values were obtained:
ALK kinase = ALK kinase (Homo sapiens, UniProt Q9UM73); test: ALK kinase assay; assay type: biochemical
Method: An in vitro assay which determines the ability of a test compound to inhibit ALK kinase. a) kinase-tagged T7 phage strains were prepared in an E. coli host derived from the BL21 strain. E. coli were grown to log-phase and infected with T7 phage and incubated with shaking at 32° C. until lysis. The lysates were centrifuged and filtered to remove cell debris. The remaining kinases were produced in HEK-293 cells and subsequently tagged with DNA for qPCR detection. […] The liganded beads were blocked with excess biotin and washed with blocking buffer (SeaBlock (Pierce), 1% BSA, 0.05% Tween 20, 1 mM DTT) to remove unbound ligand and to reduce non-specific binding. […] All reactions were performed in polystyrene 96-well plates in a final volume of 0.135 ml. […] The kinase concentration in the eluates was measured by qPCR. […]
b) An alternative method to conduct the kinase assay with the following condition and procedure: Reagent: Base Reaction buffer; 20 mM Hepes (pH 7.5), 10 mM MgCl2, 1 mM EGTA, 0.02% Brij35, 0.02 mg/ml BSA, 0.1 mM Na3VO4, 2 mM DTT, 1% DMSO.
1. Preparing indicated substrate in freshly prepared Base Reaction Buffer
2. Delivering any required cofactors to the substrate solution above
3. Delivering indicated kinase into the substrate solution and gently mix
4. Delivering compounds in DMSO into the kinase reaction mixture
5. Delivering ^33P-ATP (specific activity 0.01 μCi/μl final) into the reaction mixture to initiate the reaction.
6. Incubating kinase reaction for 120 min. at room temperature
7. Reactions are spotted onto P81 ion exchange paper (Whatman #3698-915)
8. Washing filters extensively in 0.75% Phosphoric acid. […]
c) An alternative method to conduct the kinase assay with the following condition and procedure: The assay was performed using Kinase-Glo Plus luminescence kinase assay kit (Promega). It measures kinase activity by quantitating the amount of ATP remaining in solution following a kinase reaction. The luminescent signal from the assay is correlated with the amount of ATP present and is inversely correlated with the amount of kinase activity.
The compound were diluted in 10% DMSO and 5 μl of the dilution was added to a 50 μl reaction so that the final concentration of DMSO is 1% in all of reactions. All of the enzymatic reactions were conducted at 30° C. for 40 minutes. The 50 μl reaction mixture contains 40 mM Tris, pH 7.4, 10 mM MgCl2, 0.1 mg/ml BSA, 1 mM DTT, 0.2 mg/ml substrate peptide, 10 μM ATP and ALK (Table 2.3.1). After the enzymatic reaction, 50 μl of Kinase-Glo Plus Luminescence kinase assay solution (Promega) was added to each reaction and incubate the plate for 5 minutes at room temperature. Luminescence signal was measured using a BioTek Synergy 2 microplate reader. ALK activity assays were performed in duplicate at each concentration. The luminescence data were analyzed using the computer software, Graphpad Prism. The difference between luminescence intensities in the absence of ALK (Lut) and in the presence of ALK (Luc) was defined as 100% activity (Lut−Luc). Using luminescence signal (Lu) in the presence of the compound, % activity was calculated as % activity={(Lut−Lu)/(Lut−Luc)}×100%, where Lu=the luminescence intensity in the presence of the compound (all percent activities below zero were shown zero in the table). The values of % activity versus a series of compound concentrations were then plotted using non-linear regression analysis of Sigmoidal dose-response curve generated with the equation Y=B+(T−B)/1+10^((Log EC50−X)×Hill Slope), where Y=percent activity, B=minimum percent activity, T=maximum percent activity, X=logarithm of compound and Hill Slope=slope factor or Hill coefficient. The IC50 value was determined by the concentration causing a half-maximal percent activity.

[1] = target: T1, BAF3-EML4-ALK stable cell line (Homo sapiens, UniProt Q9UM73); test: BAF3-EML4-ALK cell assay (MTT cell proliferation); assay type: cell-based; conditions: 72 hours, read-out: BAF3-EML4-ALK Cell (IC50 grading)
T1 construct: fused on or other part: Q9HC35 (Echinoderm microtubule-associated protein-like 4)
T1 sequence (Q9UM73 whole entry, change not shown, the tested form may be a part): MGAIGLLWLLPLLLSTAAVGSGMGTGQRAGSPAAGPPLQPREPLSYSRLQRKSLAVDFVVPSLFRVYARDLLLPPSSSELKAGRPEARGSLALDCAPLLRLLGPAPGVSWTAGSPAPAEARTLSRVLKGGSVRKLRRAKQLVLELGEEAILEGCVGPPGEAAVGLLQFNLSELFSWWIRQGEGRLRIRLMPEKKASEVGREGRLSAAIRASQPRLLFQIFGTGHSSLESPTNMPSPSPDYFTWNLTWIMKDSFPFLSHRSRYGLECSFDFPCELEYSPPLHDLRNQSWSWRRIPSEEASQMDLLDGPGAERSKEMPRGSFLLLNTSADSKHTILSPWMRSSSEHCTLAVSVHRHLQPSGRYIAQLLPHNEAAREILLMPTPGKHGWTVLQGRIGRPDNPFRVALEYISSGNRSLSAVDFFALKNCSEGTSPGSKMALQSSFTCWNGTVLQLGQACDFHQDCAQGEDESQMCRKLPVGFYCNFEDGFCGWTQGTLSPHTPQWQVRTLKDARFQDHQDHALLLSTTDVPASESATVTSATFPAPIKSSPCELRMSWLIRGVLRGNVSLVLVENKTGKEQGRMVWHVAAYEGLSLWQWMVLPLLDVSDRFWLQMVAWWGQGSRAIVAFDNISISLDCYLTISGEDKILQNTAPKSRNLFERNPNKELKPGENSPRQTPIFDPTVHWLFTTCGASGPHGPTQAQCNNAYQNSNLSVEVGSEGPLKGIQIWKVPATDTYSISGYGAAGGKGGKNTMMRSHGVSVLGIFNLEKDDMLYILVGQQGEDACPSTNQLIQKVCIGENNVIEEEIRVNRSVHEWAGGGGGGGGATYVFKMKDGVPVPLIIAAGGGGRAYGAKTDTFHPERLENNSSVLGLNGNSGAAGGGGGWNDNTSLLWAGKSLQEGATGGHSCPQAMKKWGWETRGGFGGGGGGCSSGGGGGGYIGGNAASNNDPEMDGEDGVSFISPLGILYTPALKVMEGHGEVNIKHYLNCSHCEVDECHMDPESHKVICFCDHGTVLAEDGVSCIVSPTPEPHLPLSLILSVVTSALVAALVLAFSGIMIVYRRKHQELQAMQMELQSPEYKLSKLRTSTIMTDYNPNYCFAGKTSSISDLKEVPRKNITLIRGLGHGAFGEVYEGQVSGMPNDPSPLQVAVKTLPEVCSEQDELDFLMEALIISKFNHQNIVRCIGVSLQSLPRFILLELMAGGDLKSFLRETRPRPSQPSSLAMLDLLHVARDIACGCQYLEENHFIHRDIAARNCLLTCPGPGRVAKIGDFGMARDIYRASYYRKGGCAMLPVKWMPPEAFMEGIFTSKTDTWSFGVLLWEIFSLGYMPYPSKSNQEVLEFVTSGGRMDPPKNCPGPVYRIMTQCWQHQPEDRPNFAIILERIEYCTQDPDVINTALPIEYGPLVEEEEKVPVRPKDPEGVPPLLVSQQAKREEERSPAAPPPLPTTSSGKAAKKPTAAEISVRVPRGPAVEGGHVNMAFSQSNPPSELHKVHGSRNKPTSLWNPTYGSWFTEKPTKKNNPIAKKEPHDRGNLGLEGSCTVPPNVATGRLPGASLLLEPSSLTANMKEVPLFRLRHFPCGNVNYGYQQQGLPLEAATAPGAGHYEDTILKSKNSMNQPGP
Method: BAF3-EML4-ALK Cell Assay:
A method of establishing BAF3-EML4-ALK stable cell line: Transfer 5×10^6 BAF3 cells to a new tube, pellet the cells, and remove PBS by aspiration.; Resuspend the cells in 1 ml electroporation buffer, this provides 5×10^6 of cells; Transfer 200 μl of cell suspension to EP tube, add 5 ug DNA, flip and place it on ice for 10 min; Pipet the 200 μl cell suspension into 2 mm electroporation cuvette; Place the cuvette into shockpod, close the lid, and press the PULSE button; Set parameters: Expentional decay pulse: VOL=200 V; CAP=900 uF, RES=1000Ω; Transfer all cells from electroporation cuvette to 6 well plate, adding 2 ml DMEMF12 containing 5 ng/ml IL3, 24 h later, replace the medium with DMEM F12 containing 2 μg/ml blasticidin S and 5 ng/ml IL3, maintain for 3 days; change the medium with DMEM F12 containing 2 ug/ml blasticidin S and 2.5 ng/ml IL3, maintain 3 days; change the medium with DMEM F12 containing 2 ug/Ml blasticidin S, maintain to culture.
MTT Cell proliferation assay: 5×10^3 per well cell with 100 μl medium was seeded in 96-well plate; 24 hours later, 100 μl fresh medium with various concentration of compounds; After the cells were treated by compounds for 72 hours, add 20 μl MTT (5 mg/ml) into each wells; The plate is incubated at 37° C. for 4 hours; Centrifuge the plate at 800 g for 10 mins, Aspirated the medium, add 150 μl DMSO into each well. Shake plates gently for 10 mins, Measure the absorbance at 570 nm on plate reader; IR=(WC−WT)/WC.

[2] = test system: EML4-ALK-BAF3 cell line xenograft; assay type: in vivo; conditions: 40 mg/kg oral gavage once daily
Description: A representative protocol for the in vivo experiment is as followed to establish the subcutaneous EML4-ALK-BAF3 cell line xenograft model in nude mice and to evaluate the in vivo therapeutic efficacy of the compounds: Animals: Male Balb/c nude mice (6˜8 weeks old) were obtained from SLAC Laboratory Animal, Shanghai, China. Animals were maintained under SPF conditions in sterile filter top cages and housed on HEPA-filtered ventilated racks. Animals received sterile rodent chow and water ad libitum. Cell line: BAF3-EML4-ALK stable cell line, the BAF3 cell which could expressed fusion oncogene EML4-ALK. S.c. Xenograft Models in Athymic Mice: Cells for implantation into athymic mice were harvested and pelleted by centrifugation at 1200 r/min for 5 min. Cells were washed once and resuspended in sterile PBS buffer with 5×10^6 in 200 μl. Then cells were implanted s.c. into the right scapular region of each mouse and allowed to grow to 200˜300 mm^3 before the administration of compound. Preparation of the Dose Formulation: each compound was suspensioned in 0.5% CMC-Na. Randomization: When tumor volumes approach 200˜300 mm^3, the mice will be randomized into 5 groups according to the tumor volume. The day will be denoted as D1 and the treatments will be started at this day. Administered: Dose will be administered with oral gavage needle once daily for number of days. Treatment of compounds administered in 0.5% CMC-Na by p.o. gavage was initiated when tumors were 200˜300 mm^3 in volume. Observations: After inoculation, the animals will be checked daily for morbidity and mortality. At the time of routine monitoring, the animals will be checked for any effects of tumor growth and treatments on normal behavior such as mobility, body weight gain/loss (body weights will be measured twice weekly or every other day), eye/hair matting and any other abnormal effect. Death and observed clinical signs will be recorded on the basis of the numbers of animals within each subset. Tumor Size Measurements: Tumor volume was determined by measurement with electronic vernier calipers every 3 days and tumor volume was calculated as the product of its length×width^2×0.5. Effect studies: Tumor volume was expressed on indicated days as the mean tumor volume ±SD. […] Significant differences between the treated versus the control groups (p<0.05) were determined using t test. At study endpoint, after blood collection, mice were practiced euthanasia by cervical dislocation, the tumor tissue was collected first, then abdominal cavity was cut open, liver and spleen were excised, then weight after the gallblader was removed respectively. Organ weight and Organ/body weight ratios between the treated versus the control groups were compared. Ratios was calculated as follows: Ratios=Organ weight/(body weight-tumor weight). Both organ weight and Organ/body weight ratios were also expressed as mean±SD, and significant differences between the treated versus the control groups (p<0.05) were determined using t test.

[3] = ALK kinase assay, read-out: ALK (IC50 grading)

ALK kinase, sequence (Q9UM73 19-1620): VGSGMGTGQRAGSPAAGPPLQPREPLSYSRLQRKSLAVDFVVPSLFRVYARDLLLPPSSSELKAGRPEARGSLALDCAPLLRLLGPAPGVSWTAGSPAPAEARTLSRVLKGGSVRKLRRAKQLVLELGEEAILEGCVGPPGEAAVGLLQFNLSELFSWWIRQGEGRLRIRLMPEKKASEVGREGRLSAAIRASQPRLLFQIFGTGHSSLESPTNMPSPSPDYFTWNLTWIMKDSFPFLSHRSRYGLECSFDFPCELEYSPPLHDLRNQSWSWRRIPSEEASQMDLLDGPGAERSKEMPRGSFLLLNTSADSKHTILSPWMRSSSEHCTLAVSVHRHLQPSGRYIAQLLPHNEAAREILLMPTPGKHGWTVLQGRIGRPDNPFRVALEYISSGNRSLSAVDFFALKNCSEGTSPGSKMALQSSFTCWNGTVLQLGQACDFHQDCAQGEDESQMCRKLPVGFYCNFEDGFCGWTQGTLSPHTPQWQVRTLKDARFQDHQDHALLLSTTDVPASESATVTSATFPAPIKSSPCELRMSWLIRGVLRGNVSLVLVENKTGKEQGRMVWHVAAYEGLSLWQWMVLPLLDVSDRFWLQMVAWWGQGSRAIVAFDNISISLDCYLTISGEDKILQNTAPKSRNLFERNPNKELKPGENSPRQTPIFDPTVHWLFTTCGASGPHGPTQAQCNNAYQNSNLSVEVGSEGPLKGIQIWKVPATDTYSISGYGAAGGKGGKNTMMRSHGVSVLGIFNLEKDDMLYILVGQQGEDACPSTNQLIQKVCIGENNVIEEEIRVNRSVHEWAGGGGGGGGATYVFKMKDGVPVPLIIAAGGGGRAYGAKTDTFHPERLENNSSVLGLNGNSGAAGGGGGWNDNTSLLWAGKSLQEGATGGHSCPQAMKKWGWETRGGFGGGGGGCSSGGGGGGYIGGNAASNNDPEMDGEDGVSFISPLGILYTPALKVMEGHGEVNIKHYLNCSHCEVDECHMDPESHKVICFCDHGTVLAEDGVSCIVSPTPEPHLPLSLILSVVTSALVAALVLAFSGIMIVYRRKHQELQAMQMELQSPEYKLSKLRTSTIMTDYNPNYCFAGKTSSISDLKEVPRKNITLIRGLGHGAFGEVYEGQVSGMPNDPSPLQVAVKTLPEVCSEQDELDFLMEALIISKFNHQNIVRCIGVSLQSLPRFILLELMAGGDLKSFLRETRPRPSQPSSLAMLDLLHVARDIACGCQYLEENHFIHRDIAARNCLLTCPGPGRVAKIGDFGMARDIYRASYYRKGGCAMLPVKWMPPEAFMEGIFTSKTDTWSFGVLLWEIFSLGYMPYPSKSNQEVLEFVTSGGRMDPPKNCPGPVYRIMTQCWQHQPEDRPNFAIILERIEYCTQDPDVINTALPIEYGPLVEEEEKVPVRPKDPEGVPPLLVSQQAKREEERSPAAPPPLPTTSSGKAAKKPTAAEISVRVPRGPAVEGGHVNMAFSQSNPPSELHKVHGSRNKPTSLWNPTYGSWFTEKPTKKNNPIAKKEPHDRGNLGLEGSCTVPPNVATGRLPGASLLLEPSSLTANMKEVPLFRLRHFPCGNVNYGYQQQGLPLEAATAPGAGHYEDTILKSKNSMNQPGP

Row | Compound | IC50 (ALK kinase; [3]) | IC50 (ALK kinase; read-out: IC50 in the ALK kinase assay) | GI50 [1] | Tumor growth inhibition (TGI, %) ([2]; Table C, day 2) | Tumor growth inhibition (TGI, %) ([2]; Table C, day 5) | Tumor growth inhibition (TGI, %) ([2]; Table C, day 8) | Tumor growth inhibition (TGI, %) ([2]; Table C, day 11) | Tumor growth inhibition (TGI, %) ([2]; Table C, day 14) | liver weight at the end of the study ([2]; control group 1.523) | Tumor growth inhibition (TGI, %) ([2]; Table B, day 4) | Tumor growth inhibition (TGI, %) ([2]; Table B, day 7) | Tumor growth inhibition (TGI, %) ([2]; Table B, day 9)
1 | [2H]C([2H])([2H])N1CCC(n2cc(-c3cnc(N)c(O[C@H](C)c4c(Cl)ccc(F)c4Cl)c3)cn2)CC1 [Compound 20, (R)-3-(1-(2,6-dichloro-3-fluorophenyl)ethoxy)-5-(1-(1-d3-methylpiperidin-4-yl)-1H-pyrazol-4-yl)pyridin-2-amine] | ≤ 100 nM | 2.6 nM | ≤ 100 nM | 29.80% | 58.20% | 71.73% | 90.29% | 92.09% | – | – | – | –
2 | CC(=O)Nc1ncc(-c2cnn(C3CCNCC3)c2)cc1O[C@H](C)c1c(Cl)ccc(F)c1Cl [Compound 18, (R)—N-(3-(1-(2,6-dichloro-3-fluorophenyl)ethoxy)-5-(1-(piperidin-4-yl)-1H-pyrazol-4-yl)pyridin-2-yl)acetamide] | ≤ 100 nM | – | ≤ 100 nM | – | – | – | – | – | 1.318 gram | 24.11% | 38.91% | 39.08%
